Data on one compound can be found in patent US20200268720A1, “METHODS OF USE OF A CLASS IIA HDAC INHIBITOR” (GlaxoSmithKline LLC, priority 2016, published 2020).

“Also recorded” adds a separate entry of the source.

The test system of experiment [1] is metastatic lesions in the lung. As to the kind of experiment: Pulmonary metastasis analysis. The format is in vivo, mouse. On the procedure: Lungs were removed from animals as described above. […] The number of metastatic foci are determined on sections taken every […] throughout the whole lung^3,33 and quantitation was performed blinded by an animal pathologist.

Experiment [2] has as its system CD11b+ bone marrow derived CFSE-labeled monocytes. As to the kind of experiment: Monocyte tracking experiment. The experiment is classed as in vivo, mouse. The note with it: TMP195 treatment of recipient mice vs DMSO. On the procedure:
Monocyte tracking was adapted and modified from Qian et al.^35 Bone marrow cells were isolated from approximately 80 day old wild-type FVB/N virgin females. CD11b+ cells were isolated with CD11b MicroBeads (Miltenyi Biotec 130-049-601) using LS magnetic separation columns (Miltenyi Biotec 130-042-401) per manufacturer's instruction. CD11b^+ cells were incubated with 10 μM of CFSE (ThermoFisher C34554) for 15 minutes at 37° C. […] Mice were treated for an additional 5 days and tumors were harvested. The percent of CD11b^+ CFSE^+ double positive cells was assessed by flow cytometry.

For experiment [3], the system named is mouse MMTV-PyMT breast tumor cell lines. As to the kind of experiment: In vitro cell death assay (CellTiter-Glo), mouse lines. The format is cell-based. The note with it: 0, 0.1, 1, 10 μM, 48 hours. The protocol:
The human breast cancer cell lines (BT20, MCF7, HCC202, T47D, MDA-MB-453 and MDA-MB-436) were obtained from ATCC. Prior to use, cell line authentication was performed by either STR profiling at Dana-Farber Cancer Institute or by Fluidigm based fingerprinting with a panel of SNPs at The Broad Institute. Cell lines were tested for mycoplasma with the MycoAlert PLUS Mycoplasma Detection Kit (Lonza LT07) according to manufacturer's instructions. Mouse breast tumor cell lines were established from 4 different MMTV-PyMT tumor bear mice. Mouse breast tumor cell line 7333 was implanted into wild-type littermates and once the tumor formed it was removed and used to generate the tumor cell line “MMTV”. All cells were plated at 1E4 cells/well in a 96 well plate. Cells were treated for 48 hours and CellTiter-Glo was used to assess cell viability.
For orientation: Cellular ATP, detected with luciferase, serves as a proxy for viable cell number.

For experiment [4], the system named is MMTV-PyMT tumors. As to the kind of experiment: Combination with chemotherapy (Carboplatin, Paclitaxel) in MMTV-PyMT mice. The format is in vivo, mouse.
The test system of experiment [5] is MMTV-PyMT tumors. Put plainly: Depletion experiments (anti-CD11b, anti-CSF1, anti-CD8, anti-CD4, anti-IFNγ). The format is in vivo, mouse. On the procedure:
For CSF1 depletion, mice were injected IP with 1 mg of anti-CSF1 (BioXCell BE0204; clone 5A1) 1 day before treatment with vehicle or compound, and then with 0.5 mg every 5 days^3. For CD11b depletion mice were injected IP with 100 μg of anti-CD11b (clone M1/70; BioLegend 101231) one day before treatment with vehicle or compound, and then every other day.^34 For CD8 immune cell depletion, mice were injected IP with 1 mg anti-CD8 immunoglobulin (BioXCell BE0117; clone YTS169.4) or control IgG2b (BioXCell BE0090; clone LTF-2) on day 1 and then with 0.5 mg every 5 days for 2 week study. For 6-day experiment mice were dosed with: IgG1 (BioXcell BE0088; clone HRPN), α-CD8 (BioXcell BE0117; clone YTS169.4), α-CD4 (BioXcell BE0033-1; clone GK1.5) and α-INFγ (BioXcell BE0055; clone XMG1.2) with 1 mg on day 0 and 0.5 mg on day 4; except α-CD4 which was dosed at 400 μg on day 0 and 400 μg on day 4.

The test system of experiment [6] is tumor macrophages. As to the kind of experiment: New vs. pre-existing macrophage dextran experiment. The format is in vivo, mouse. To be noted: 5 days of TMP195 vs vehicle. The protocol:
MMTV-PyMT tumor-bearing mice were injected with 0.25 mg/mouse (10 mpk) low molecular weight (10,000 MW) Alexa555-labelled dextran (Life Technologies D34679) which is readily taken up by phagocytic cells. Mice were then treated for 5 consecutive days with DMSO or TMP195. Two hours before the mice were sacrificed they were injected with 0.25 mg/mouse of another low molecular weight (10,000 MW) dextran, this time labeled with Alexa594 (Life Technologies D22913)14. Tumors were collected as described above and flow cytometry was performed. […] Mice that received only one of the dextran conjugates were used as controls for flow cytometry.

Where [7] appears, read: TMP195 50 mg/kg IP daily plus PTX 10 mg/kg IV.

With `CC(C)(CNC(=O)c1cccc(-c2noc(C(F)(F)F)n2)c1)c1coc(-c2ccccc2)n1` [TMP195, N-(2-methyl-2-(2-phenyloxazol-4-yl)propyl)-3-(5-(trifluoromethyl)-1,2,4-oxadiazol-3-yl)benzamide], in experiment [1] (initial tumor burden <400 mm^3, 24 days of treatment), the “metastatic lesions in the lung” value is on record as “significant decrease”. Further, the metastatic pulmonary lesions result in experiment [1] (tumor burden 200-600 mm^3 at start, 14 days of treatment) is on record as “decrease”. For the same compound, the “proportion of IV injected CD11bhiCFSE+ monocytes recruited to tumors” value in experiment [2] is “significant increase; also recorded: significantly enhanced”. Moreover, the “cell viability, 6 mouse MMTV-PyMT cell lines” value in experiment [3] is listed as “not directly cytotoxic; also recorded: does not affect cell viability”. For the same compound, the “tumor burden, combination with Carboplatin” value in experiment [4] (TMP195 50 mg/kg IP daily plus Carboplatin 50 mg/kg IV every 5 days) is “significant reduction in tumor burden compared to either monotherapy”. Moreover, in experiment [4] (setting [7]), the “durability of efficacy, combination of TMP195 and PTX” value was “at least 29 days”; the “durability, combination of TMP195 plus PTX (figure legend)” value is “durable for at least one month”. Moreover, the “tumor burden, combination with Paclitaxel” value in experiment [4] (TMP195 50 mg/kg IP daily plus Paclitaxel 10 mg/kg IV every 5 days) is listed as “significant reduction in tumor burden compared to either monotherapy”. In experiment [5] (TMP195 50 mg/kg IP daily plus anti-CD11b), the “anti-tumor efficacy with myeloid cell depletion (anti-CD11b)” value is reported as “abrogated the efficacy”. Also, in experiment [5] (TMP195 50 mg/kg IP daily plus anti-CSF-1), the “anti-tumor efficacy with macrophage depletion (anti-CSF-1)” value is “abrogated the efficacy”. Moreover, in experiment [5] (TMP195 plus anti-IFNγ antibody), the “CD34 staining in tumor sections with IFNγ neutralization” value is “failed to normalize CD34 staining”. Besides, in experiment [5] (TMP195 plus α-CD4, 6 days), the “autochthonous tumor burden with CD4+ cell depletion” value is on record as “reduced”. Besides, the “single agent efficacy with CD8+ cell depletion” value in experiment [5] (TMP195 plus α-CD8) is “prevented the single agent efficacy”. For the same compound, the “Granzyme B+ CD8+ T cells in tumors with IFNγ neutralization” value in experiment [5] (TMP195 plus α-IFNγ) is recorded as “disappearance”. In addition, in experiment [5] (TMP195 plus α-IFNγ, 6 days), the “reduction of tumor burden with IFNγ neutralization” value is reported as “loss of efficacy”. In addition, in experiment [6], the “number of new macrophages in the tumor” value is “increases”; the “number of pre-existing macrophages in the tumor” value is “not and without affecting”.
